SMILES strings stand for the structures. pIC50: −log10 of the molar value. A value given as a limit tells only on which side of the number the result lay.

The test system of this test is MCF-7 cells. As to the kind of experiment: Inhibitory effect on the growth of MCF-7 cells (CellTiter-Glo, 10 days). In kind it is cell-based. Particulars: Homo sapiens, MCF7, 240 h, 10 days incubation, CellTiter-Glo chemiluminescence. How it is done: Assay 2: Inhibitory effect of compounds of the present invention on the growth of MCF-7 cells by a cell drug inhibition experiment
1. Experimental Materials
1) Reagents: DMEM high glucose medium (Lonza #12-604F), FBS (BI #04-00F1ACS), antibiotics (Thermofisher #15070063), bovine insulin (Western reagent #11070-73-8), trypsin (Thermofisher #25200-056), CellTiter-Glo reagent (Promega #G7571)
2) Instruments: American MD-M5 microplate reader 5;
2. Experimental Procedures:
1) 100 μl of MCF-7 cells was added to a medium in a white opaque 96-well plate at a density of 5000 cells/ml in which the medium is DMEM high-glucose medium supplemented with 10% FBS. The cells were cultured in a 5% CO2 cell incubator at 37° C. for 24 hours.
2) Different concentrations of corresponding compounds were added to the 96-well plate for incubating MCF-7 cells. The cells were incubated for 10 days in a 5% CO2 cell incubator.
3) To each well of MCF-7 cells, 100 μl of CellTiter-Glo reagent was added and then set aside at room temperature for 10 minutes. The chemiluminescence signal was read using an MD-M5 microplate reader, and the data was processed using GraphPad Prism to calculate IC50 value.
With `CC(C)C[C@H]1[C@H](c2ccc(NC3CN(CCCF)C3)cc2)c2ccc3[nH]ncc3c2CN1C` [Example 1, 1-(3-fluoropropyl)-N-(4-((6R, 7S)-7-isobutyl-8-methyl-6,7,8,9-tetrahydro-3H-pyrazolo [3,4-h]isoquinolin-6-yl)phenyl)azetidin-3-amine], the pIC50 (in general, the IC50 on a negative log10 scale, so that one unit is a factor of ten) is 8.00 to 9.00. The result for `CC(C)C[C@H]1[C@H](c2c(F)cc(NC3CN(CCCF)C3)cc2F)c2ccc3[nH]ncc3c2CN1C` [Example 2, N-(3,5-difluoro-4-((6S, 7S)-7-isobutyl-8-methyl-6,7,8,9-tetrahydro-3H-pyrazolo [3,4-h]isoquinolin-6-yl)phenyl)-1-(3-fluoropropyl) azetidin-3-amine] reads not below 9.00; that for `CC(C)C[C@H]1[C@H](c2c(F)cc(NC3CN(CC(F)CF)C3)cc2F)c2ccc3[nH]ncc3c2CN1C` (stereo partly drawn) [Example 3, N-(3,5-difluoro-4-((6S, 7S)-7-isobutyl-8-methyl-6,7,8,9-tetrahydro-3H-pyrazolo [3,4-h]isoquinolin-6-yl)phenyl)-1-(2,3-difluoropropyl) azetidin-3-amine], less than 6.00; that for `CC(C)C[C@H]1[C@H](c2c(F)cc(NC3CN(CCC(F)(F)F)C3)cc2F)c2ccc3[nH]ncc3c2CN1C` [Example 4, N-(3,5-difluoro-4-((6S, 7S)-7-isobutyl-8-methyl-6,7,8,9-tetrahydro-3H-pyrazolo [3,4-h]isoquinolin-6-yl)phenyl)-1-(3,3,3-trifluoropropyl) azetidin-3-amine], less than 6.00.

Regarding `CN1Cc2c(ccc3[nH]ncc23)[C@@H](c2c(F)cc(NC3CN(CCCF)C3)cc2F)[C@@H]1CC1CC1` [Example 5, N-(4-((6S, 7S)-7-cyclopropylmethyl-8-methyl-6,7,8,9-tetrahydro-3H-pyrazolo [3,4-h]isoquinolin-6-yl)-3,5-difluorophenyl)-1-(3-fluoropropyl) azetidin-3-amine], the pIC50 is less than 6.00.

For `CCCN1CC(Nc2cc(F)c([C@@H]3c4ccc5[nH]ncc5c4CN(C)[C@H]3CC(C)C)c(F)c2)C1` [Example 6, N-(3,5-difluoro-4-((6S, 7S)-7-isobutyl-8-methyl-6,7,8,9-tetrahydro-3H-pyrazolo [3,4-h]isoquinolin-6-yl)phenyl)-1-propylazetidin-3-amine], the pIC50 was less than 6.00. As for `CCCCN1CC(Nc2cc(F)c([C@@H]3c4ccc5[nH]ncc5c4CN(C)[C@H]3CC(C)C)c(F)c2)C1` [Example 7, 1-butyl-N-(3,5-difluoro-4-((6S, 7S)-7-isobutyl-8-methyl-6,7,8,9-tetrahydro-3H-pyrazolo [3,4-h]isoquinolin-6-yl)phenyl) azetidin-3-amine], the pIC50 is less than 6.00.

In turn, `CC(C)C[C@H]1[C@H](c2c(F)cc(NC3CN(CC(C)C)C3)cc2F)c2ccc3[nH]ncc3c2CN1C` [Example 8, N-(3,5-difluoro-4-((6S, 7S)-7-isobutyl-8-methyl-6,7,8,9-tetrahydro-3H-pyrazolo [3,4-h]isoquinolin-6-yl)phenyl)-1-isobutylazetidin-3-amine] had a negative logarithm of the IC50 (pIC50) of less than 6.00. Consider `CCCCCN1CC(Nc2cc(F)c([C@@H]3c4ccc5[nH]ncc5c4CN(C)[C@H]3CC(C)C)c(F)c2)C1` [Example 9, N-(3,5-difluoro-4-((6S, 7S)-7-isobutyl-8-methyl-6,7,8,9-tetrahydro-3H-pyrazolo [3,4-h]isoquinolin-6-yl)phenyl)-1-pentylazetidin-3-amine], for which the pIC50 is less than 6.00. On to `CC(C)C[C@H]1[C@H](c2c(F)cc(SC3CN(CCCF)C3)cc2F)c2ccc3[nH]ncc3c2CN1C` [Example 10, (6S, 7S)-6-(2,6-difluoro-4-((1-(3-fluoropropyl)azetidin-3-yl)thio)phenyl)-7-isobutyl-8-methyl-6,7,8,9-tetrahydro-3H-pyrazolo [3,4-h]isoquinoline], for which the negative logarithm of the IC50 (pIC50) is not below 9.00.

As to `CCCN1CC(Sc2cc(F)c([C@@H]3c4ccc5[nH]ncc5c4CN(C)[C@H]3CC(C)C)c(F)c2)C1` [Example 11], the pIC50 is not below 9.00. Next, `CCCCN1CC(Sc2cc(F)c([C@@H]3c4ccc5[nH]ncc5c4CN(C)[C@H]3CC(C)C)c(F)c2)C1` [Example 12, (6S, 7S)-6-(4-((1-butylazetidin-3-yl)thio)-2,6-difluorophenyl)-7-isobutyl-8-methyl-6,7,8,9-tetrahydro-3H-pyrazolo [3,4-h]isoquinoline]: 6.00 to 8.00; `CC(C)C[C@H]1[C@H](c2c(F)cc(SC3CN(CC(C)C)C3)cc2F)c2ccc3[nH]ncc3c2CN1C` [Example 13, (6S, 7S)-6-(2,6-difluoro-4-((1-isobutylazetidin-3-yl)thio)phenyl)-7-isobutyl-8-methyl-6,7,8,9-tetrahydro-3H-pyrazolo [3,4-h]isoquinoline]: 6.00 to 8.00. For the compound `CCCCCN1CC(Sc2cc(F)c([C@@H]3c4ccc5[nH]ncc5c4CN(C)[C@H]3CC(C)C)c(F)c2)C1` [Example 14, (6S, 7S)-6-(2,6-difluoro-4-((1-pentylazetidin-3-yl)thio)phenyl)-7-isobutyl-8-methyl-6,7,8,9-tetrahydro-3H-pyrazolo [3,4-h]isoquinoline], the pIC50 was less than 6.00. `CC(C)C[C@H]1[C@H](c2c(F)cc(OC3CN(CCCF)C3)cc2F)c2ccc3[nH]ncc3c2CN1C` [Example 15, (6S, 7S)-6-(2,6-difluoro-4-((1-(3-fluoropropyl)azetidin-3-yl)oxy)phenyl)-7-isobutyl-8-methyl-6,7,8,9-tetrahydro-3H-pyrazolo [3,4-h]isoquinoline]: the pIC50 was not below 9.00.

As to `CCCN1CC(Oc2cc(F)c([C@@H]3c4ccc5[nH]ncc5c4CN(C)[C@H]3CC(C)C)c(F)c2)C1` [Example 16, (6S, 7S)-6-(2,6-difluoro-4-((1-propylazetidin-3-yl)oxy)phenyl)-7-isobutyl-8-methyl-6,7,8,9-tetrahydro-3H-pyrazolo [3,4-h]isoquinoline], the pIC50 is not below 9.00. The result for `CC(C)C[C@H]1[C@H](c2c(F)cc(OC3CN(CC(C)C)C3)cc2F)c2ccc3[nH]ncc3c2CN1C` [Example 17, (6S, 7S)-6-(2,6-difluoro-4-((1-isobutylazetidin-3-yl)oxy)phenyl)-7-isobutyl-8-methyl-6,7,8,9-tetrahydro-3H-pyrazolo [3,4-h]isoquinoline] reads 8.00 to 9.00.

In turn, `CCCCN1CC(Oc2cc(F)c([C@@H]3c4ccc5[nH]ncc5c4CN(C)[C@H]3CC(C)C)c(F)c2)C1` [Example 18] had a pIC50 of less than 6.00. As for `CCCCCN1CC(Oc2cc(F)c([C@@H]3c4ccc5[nH]ncc5c4CN(C)[C@H]3CC(C)C)c(F)c2)C1` [Example 19], the pIC50 is less than 6.00.

In turn, `CN1Cc2c(ccc3[nH]ncc23)[C@@H](c2c(F)cc(OC3CN(CCCF)C3)cc2F)[C@@H]1CC1CC1` [Example 20, (6S, 7S)-7-(cyclopropylmethyl)-6-(2,6-difluoro-4-((1-(3-fluoropropyl)azetidin-3-yl)oxy)phenyl)-8-methyl-6,7,8,9-tetrahydro-3H-pyrazolo [3,4-h]isoquinoline] had a pIC50 of less than 6.00.

Turning to `CCCN1CC(Oc2cc(F)c([C@@H]3c4ccc5[nH]ncc5c4CN(C)[C@H]3CC3CC3)c(F)c2)C1` [Example 21, (6S, 7S)-7-cyclopropylmethyl-6-(2,6-difluoro-4-((1-propylazetidin-3-yl)oxy)phenyl)-8-methyl-6,7,8,9-tetrahydro-3H-pyrazolo [3,4-h]isoquinoline], the pIC50 is less than 6.00.

Source of the values: patent publication US11236088B2, “Heterocyclic compounds and their application in medicine” (KIND PHARMACEUTICAL, priority 2017, dated 2022).
